EC50, CC50 and selectivity ratio data for 32 molecules are collected here from ChEMBL document CHEMBL5120865, “Exploration of 6-methyl-7-(Hetero)Aryl-7-Deazapurine ribonucleosides as antileishmanial agents” (Eur J Med Chem, 2022).

The test system of one data set is Leishmania infantum. In words: Antileishmanial activity against intracellular Leishmania infantum MHOM/MA(BE)/67 ITMAP263 amastigotes infected in Swiss mouse peritoneal macrophage assessed as inhibition of parasite growth measured after 5 days by geimsa staining based microscopic analysis. Particulars: MHOM/MA(BE)/67 ITMAP263, Peritoneal macrophage, 120 h. In kind it is functional, organism-based.

A short description of data set [1]: Cytotoxicity against Swiss mouse peritoneal macrophages assessed as reduction in cell viability measured after 5 days by microscopic analysis. The data set is classed as toxicity, cell-based, Peritoneal macrophage. To be noted: time 5 day.
Data set [2] is described as follows: Cytotoxicity against human MRC5 cells assessed as reduction in cell viability incubated for 3 days by resazurin dye based fluorescence analysis. The data set is classed as toxicity. To be noted: time 3 day.
The nature of data set [3]: Selectivity index, ratio of CC50 for Cytotoxicity against Swiss mouse peritoneal macrophages to EC50 for intracellular Leishmania infantum MHOM/MA(BE)/67 ITMAP263 amastigotes infected in Swiss mouse peritoneal macrophages. Particulars: read-out: Ratio CC50/EC50. In kind it is toxicity, cell-based.

Some results are limits rather than exact numbers.

With `CSc1ccccc1-c1cn([C@@H]2O[C@H](CO)[C@@H](O)[C@H]2O)c2ncnc(C)c12`, in the data set with Leishmania infantum, the EC50 was more than 64 µM. In addition, the CC50 at 120 h in data set [1] was more than 64 µM. In addition, the CC50 at 72 h in data set [2] was more than 64 µM.

Regarding `Cc1ncnc2c1c(-c1cnn(C)c1)cn2[C@@H]1O[C@H](CO)[C@@H](O)[C@H]1O`, the EC50 in the data set on Leishmania infantum came to 8 µM. In addition, in data set [1], the CC50 at 120 h is more than 64 µM. The selectivity ratio in data set [3] is more than 8. For the same molecule, in data set [2], the CC50 at 72 h is more than 64 µM.

For the molecule `Cc1ncnc2c1c(-c1ccc(Cl)cc1)cn2[C@@H]1O[C@H](CO)[C@@H](O)[C@H]1O`, in the data set on Leishmania infantum, the EC50 was determined as 16.1 µM. In data set [1], the CC50 at 120 h is more than 64 µM. Moreover, the selectivity ratio in data set [3] was more than 3.5.

Regarding `Cc1ncnc2c1c(-c1cccc(Cl)n1)cn2[C@@H]1O[C@H](CO)[C@@H](O)[C@H]1O`, the EC50 in the data set with Leishmania infantum is 14.2 µM. Moreover, the CC50 at 120 h in data set [1] is more than 64 µM. The selectivity ratio in data set [3] is more than 4.51. Besides, the CC50 at 72 h in data set [2] is more than 64 µM.

Take `COc1cc(-c2cn([C@@H]3O[C@H](CO)[C@@H](O)[C@H]3O)c3ncnc(C)c23)ccc1Cl`: the EC50 with Leishmania infantum worked out at 8.76 µM. The half-maximal cytotoxic concentration (CC50) at 120 h in data set [1] was more than 64 µM. In addition, in data set [3], the selectivity ratio is more than 7.3.

Regarding `Cc1ncnc2c1c(-c1ccccc1N)cn2[C@@H]1O[C@H](CO)[C@@H](O)[C@H]1O`, the EC50 in the data set on Leishmania infantum was more than 64 µM. Also, the CC50 at 120 h in data set [1] is more than 64 µM. In addition, the CC50 at 72 h in data set [2] is more than 64 µM.

With `Cc1ncnc2c1c(-c1ccc(Cl)nc1)cn2[C@@H]1O[C@H](CO)[C@@H](O)[C@H]1O`, the EC50 in the data set on Leishmania infantum was more than 64 µM. Besides, the CC50 at 120 h in data set [1] is more than 64 µM. For the same molecule, the CC50 at 72 h in data set [2] is more than 64 µM.

Turning to `Cc1ncnc2c1c(-c1cccnc1)cn2[C@@H]1O[C@H](CO)[C@@H](O)[C@H]1O`, the EC50 in the data set with Leishmania infantum was found to be 22.6 µM. The CC50 at 120 h in data set [1] is more than 64 µM. Besides, the selectivity ratio in data set [3] was more than 2.8. Further, the CC50 at 72 h in data set [2] is more than 64 µM.

For `Cc1ncnc2c1c(-c1ccccc1Cl)cn2[C@@H]1O[C@H](CO)[C@@H](O)[C@H]1O`, in the data set on Leishmania infantum, the EC50 is 20.4 µM. Besides, the CC50 at 120 h in data set [1] is more than 64 µM. In addition, in data set [3], the selectivity ratio was more than 3.1. Moreover, in data set [2], the CC50 at 72 h is more than 64 µM.

As for `Cc1ncnc2c1c(-c1cccc(F)n1)cn2[C@@H]1O[C@H](CO)[C@@H](O)[C@H]1O`, in the data set with Leishmania infantum, the EC50 was more than 64 µM. The CC50 at 120 h in data set [1] is more than 64 µM. In addition, the CC50 at 72 h in data set [2] was more than 64 µM.

With `Cc1ncnc2c1c(Sc1ccccc1)cn2[C@@H]1O[C@H](CO)[C@@H](O)[C@H]1O`, the EC50 in the data set with Leishmania infantum is more than 64 µM. For the same molecule, the CC50 at 120 h in data set [1] is more than 64 µM. In data set [2], the CC50 at 72 h is more than 64 µM.

On to `Cc1ncnc2c1c(C1=CCOCC1)cn2[C@@H]1O[C@H](CO)[C@@H](O)[C@H]1O`, for which, in the data set with Leishmania infantum, the EC50 was 24.5 µM. Also, the CC50 at 120 h in data set [1] is more than 64 µM.

For the molecule `Cc1ncnc2c1c(-c1cnccn1)cn2[C@@H]1O[C@H](CO)[C@@H](O)[C@H]1O`, the EC50 in the data set on Leishmania infantum was determined as 10.1 µM. Besides, the CC50 at 120 h in data set [1] is more than 64 µM. Also, in data set [3], the selectivity ratio was more than 6.3. The CC50 at 72 h in data set [2] is more than 64 µM.

For the molecule `Cc1ncnc2c1c(CCc1ccccn1)cn2[C@@H]1O[C@H](CO)[C@@H](O)[C@H]1O`, the EC50 in the data set with Leishmania infantum is more than 64 µM. In data set [1], the CC50 at 120 h is more than 64 µM. Moreover, in data set [2], the CC50 at 72 h is more than 64 µM.

As to `Cc1ncnc2c1c(-c1cccc3c1oc1ccccc13)cn2[C@@H]1O[C@H](CO)[C@@H](O)[C@H]1O`, the EC50 in the data set with Leishmania infantum came to 50.8 µM. Moreover, the CC50 at 120 h in data set [1] is more than 64 µM. Besides, the selectivity ratio in data set [3] is more than 1.2. In addition, in data set [2], the CC50 at 72 h was determined as 12.7 µM.

Turning to `Cc1ncnc2c1c(-c1cc3ccccc3o1)cn2[C@@H]1O[C@H](CO)[C@@H](O)[C@H]1O`, in the data set with Leishmania infantum, the EC50 is 20.3 µM. Also, in data set [1], the CC50 at 120 h amounted to 32 µM. The selectivity ratio in data set [3] was determined as 1.58. Further, the CC50 at 72 h in data set [2] came to 45.8 µM.

In the case of `Cc1ncnc2c1c(-c1cc3ccccc3cn1)cn2[C@@H]1O[C@H](CO)[C@@H](O)[C@H]1O`, the EC50 in the data set with Leishmania infantum is more than 64 µM. The CC50 at 120 h in data set [1] was more than 64 µM. For the same molecule, in data set [2], the CC50 at 72 h was more than 64 µM.

As to `Cc1ncnc2c1c(-c1cc[nH]n1)cn2[C@@H]1O[C@H](CO)[C@@H](O)[C@H]1O`, the EC50 with Leishmania infantum is 8 µM. In addition, in data set [1], the CC50 at 120 h is more than 64 µM. For the same molecule, in data set [3], the selectivity ratio is more than 8. The CC50 at 72 h in data set [2] is 27.9 µM.

For the molecule `Cc1ncnc2c1c(-c1ccoc1)cn2[C@@H]1O[C@H](CO)[C@@H](O)[C@H]1O`, the EC50 with Leishmania infantum is more than 64 µM. Further, the CC50 at 120 h in data set [1] is more than 64 µM. The CC50 at 72 h in data set [2] is more than 64 µM.

With `Cc1ncnc2c1c(-c1ccc(S(C)(=O)=O)cc1)cn2[C@@H]1O[C@H](CO)[C@@H](O)[C@H]1O`, in the data set on Leishmania infantum, the EC50 was 6.7 µM. Moreover, in data set [1], the CC50 at 120 h is more than 64 µM. The selectivity ratio in data set [3] was more than 9.5.

On to `Cc1ncnc2c1c(-c1ccc(C(F)(F)F)cc1)cn2[C@@H]1O[C@H](CO)[C@@H](O)[C@H]1O`, for which, in the data set with Leishmania infantum, the EC50 was found to be 11.3 µM. The CC50 at 120 h in data set [1] was more than 64 µM. In addition, the selectivity ratio in data set [3] is more than 5.6.

Turning to `Cc1ncnc2c1c(-c1ccccc1[N+](=O)[O-])cn2[C@@H]1O[C@H](CO)[C@@H](O)[C@H]1O`, the concentration giving a half-maximal response (EC50) with Leishmania infantum is more than 64 µM. The CC50 at 120 h in data set [1] is more than 64 µM. In addition, the CC50 at 72 h in data set [2] is more than 64 µM.

Turning to `Cc1ncnc2c1c(-c1ccc(N)cc1)cn2[C@@H]1O[C@H](CO)[C@@H](O)[C@H]1O`, the EC50 in the data set on Leishmania infantum was found to be 6.7 µM. Further, the CC50 at 120 h in data set [1] was more than 64 µM. In addition, the selectivity ratio in data set [3] is more than 9.5.

On to `Cc1ncnc2c1c(-c1cccs1)cn2[C@@H]1O[C@H](CO)[C@@H](O)[C@H]1O`, for which the EC50 in the data set on Leishmania infantum stood at 12.7 µM. Moreover, in data set [1], the CC50 at 120 h stood at 32 µM. In addition, the selectivity ratio in data set [3] was 2.5.

For `Cc1ncnc2c1c(-c1ccc(Cl)c(F)c1)cn2[C@@H]1O[C@H](CO)[C@@H](O)[C@H]1O`, the EC50 with Leishmania infantum is 7.9 µM. The CC50 at 120 h in data set [1] was more than 64 µM. Also, the selectivity ratio in data set [3] was more than 8.

Consider `COc1ccccc1-c1cn([C@@H]2O[C@H](CO)[C@@H](O)[C@H]2O)c2ncnc(C)c12`, for which the concentration giving a half-maximal response (EC50) with Leishmania infantum amounted to 21.1 µM. In addition, the CC50 at 120 h in data set [1] is more than 64 µM. In data set [3], the selectivity ratio is more than 3. In addition, in data set [2], the CC50 at 72 h is more than 64 µM.

Turning to `Cc1ncnc2c1c(-c1ccc3ccccc3n1)cn2[C@@H]1O[C@H](CO)[C@@H](O)[C@H]1O`, the EC50 in the data set on Leishmania infantum was more than 64 µM. Moreover, in data set [1], the CC50 at 120 h was more than 64 µM. In data set [2], the CC50 at 72 h was more than 64 µM.

For the molecule `Cc1ncnc2c1c(-c1ccsc1)cn2[C@@H]1O[C@H](CO)[C@@H](O)[C@H]1O`, in the data set on Leishmania infantum, the EC50 is more than 64 µM. Besides, the CC50 at 120 h in data set [1] is more than 64 µM. Further, the CC50 at 72 h in data set [2] was more than 64 µM.

Regarding `Cc1ncnc2c1c(-c1ccncc1)cn2[C@@H]1O[C@H](CO)[C@@H](O)[C@H]1O`, the EC50 in the data set on Leishmania infantum is more than 64 µM. The CC50 at 120 h in data set [1] is more than 64 µM. Moreover, the CC50 at 72 h in data set [2] was more than 64 µM.

As to `Cc1ncnc2c1c(-c1cccc3ccn(C)c13)cn2[C@@H]1O[C@H](CO)[C@@H](O)[C@H]1O`, the EC50 in the data set on Leishmania infantum is more than 64 µM. Moreover, the CC50 at 120 h in data set [1] is more than 64 µM. For the same molecule, the 50% cytotoxic concentration (CC50) at 72 h in data set [2] is more than 64 µM.

For the molecule `COc1ccnc(-c2cn([C@@H]3O[C@H](CO)[C@@H](O)[C@H]3O)c3ncnc(C)c23)c1`, the EC50 in the data set on Leishmania infantum is more than 64 µM. Besides, the CC50 at 120 h in data set [1] is more than 64 µM. Further, the CC50 at 72 h in data set [2] is more than 64 µM.

For `Cc1ncnc2c1c(-c1ccccc1F)cn2[C@@H]1O[C@H](CO)[C@@H](O)[C@H]1O`, the EC50 with Leishmania infantum is more than 64 µM. In addition, the CC50 at 120 h in data set [1] is more than 64 µM. The cytotoxic concentration (CC50) at 72 h in data set [2] is more than 64 µM.
